Assay results: paper PMC3751577, “Three-stage biochemical selection: cloning of prototype class IIS/IIC/IIG restriction endonuclease-methyltransferase TsoI from the thermophile Thermus scotoductus” (BMC Molecular Biology, 2013)

Assays:
TsoI [1] = target: T1, TsoI (Thermus scotoductus, UniProt T1RQY5); experiment: DNA cleavage assay on lambda DNA, agarose gel; format: biochemical; details: activator, putative allosteric; weak stimulation of REase; 50 uM effector; 10 mM MgCl2, pH 7.5, 55°C, 30 min
T1 construct: gene tsoIRM; native (wt) full-length enzyme purified to homogeneity from T. scotoductus; monomer
T1 sequence (T1RQY5 1-1116): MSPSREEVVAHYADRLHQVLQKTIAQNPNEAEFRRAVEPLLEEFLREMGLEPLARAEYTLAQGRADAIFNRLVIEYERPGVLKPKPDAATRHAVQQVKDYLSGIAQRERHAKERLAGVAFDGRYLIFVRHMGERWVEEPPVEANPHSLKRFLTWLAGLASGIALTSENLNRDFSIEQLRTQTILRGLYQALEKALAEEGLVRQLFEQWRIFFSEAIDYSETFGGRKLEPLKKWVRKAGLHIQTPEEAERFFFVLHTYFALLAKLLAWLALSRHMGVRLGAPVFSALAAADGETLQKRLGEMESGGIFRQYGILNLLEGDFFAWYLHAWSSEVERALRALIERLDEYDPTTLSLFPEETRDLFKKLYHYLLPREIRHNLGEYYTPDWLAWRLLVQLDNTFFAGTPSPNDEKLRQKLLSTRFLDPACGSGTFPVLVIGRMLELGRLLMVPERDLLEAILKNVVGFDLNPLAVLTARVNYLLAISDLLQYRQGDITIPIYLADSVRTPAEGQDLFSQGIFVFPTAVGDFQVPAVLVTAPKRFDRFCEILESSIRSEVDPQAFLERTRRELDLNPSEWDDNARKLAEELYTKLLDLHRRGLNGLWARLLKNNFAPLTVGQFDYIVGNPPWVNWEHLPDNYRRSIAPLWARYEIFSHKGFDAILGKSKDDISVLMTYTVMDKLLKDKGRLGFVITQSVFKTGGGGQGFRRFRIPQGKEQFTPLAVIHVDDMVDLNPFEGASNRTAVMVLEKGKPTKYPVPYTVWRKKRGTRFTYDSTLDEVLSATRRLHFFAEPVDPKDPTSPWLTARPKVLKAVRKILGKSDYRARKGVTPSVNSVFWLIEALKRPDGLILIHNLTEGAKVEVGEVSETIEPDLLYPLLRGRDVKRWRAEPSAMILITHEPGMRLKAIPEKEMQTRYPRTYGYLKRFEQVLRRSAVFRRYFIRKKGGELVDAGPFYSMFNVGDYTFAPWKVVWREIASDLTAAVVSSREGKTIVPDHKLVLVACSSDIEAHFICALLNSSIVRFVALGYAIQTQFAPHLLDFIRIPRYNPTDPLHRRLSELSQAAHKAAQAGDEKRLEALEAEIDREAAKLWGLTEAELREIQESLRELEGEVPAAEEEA

TsoI [2] = target: T1, TsoI; experiment: DNA cleavage assays on lambda DNA and single-site PCR substrate, agarose gel; format: biochemical; details: activator, putative allosteric; weak stimulation of REase; 50 uM effector; 10 mM MgCl2, pH 7.5, 55°C, 30 min or 16 h

SMILES: Nc1ncnc2c1ncn2[C@@H]1O[C@H](C[C@@H](N)CC[C@H](N)C(=O)O)[C@@H](O)[C@H]1O [SIN]
- DNA cleavage assay on lambda DNA, agarose gel (TsoI [1]): activation of REase function by SAM, SIN and SAH is weak, but detectable

SMILES: C[S+](CC[C@H](N)C(=O)O)C[C@H]1O[C@@H](n2cnc3c(N)ncnc32)[C@H](O)[C@@H]1O (stereo partly drawn) [SAM]
- DNA cleavage assays on lambda DNA and single-site PCR substrate, agarose gel (TsoI [2]): activation of REase function by SAM, SIN and SAH is weak, but detectable

SMILES: Nc1ncnc2c1ncn2[C@@H]1O[C@H](CSCC[C@H](N)C(=O)O)[C@@H](O)[C@H]1O [SAH]
- DNA cleavage assay on lambda DNA, agarose gel (TsoI [1]): activation of REase function by SAM, SIN and SAH is weak, but detectable
